Measurements: patent US8058263B2, “Substituted 2-phenyl-pyridine derivatives” (Actelion Pharmaceuticals Ltd, priority 2008, dated 2011)

Biological target: T1, human P2Y12 receptor (Homo sapiens, UniProt Q9H244)
T1 construct: expressed in transfected cells; host or cells: Chinese Hamster Ovary (CHO) cells
Assay: P2Y12 receptor binding assay
Conditions: CHO cells with recombinant expression of the human P2Y12 receptor; tritium-labeled 2-methyl-S-ADP; 2 hours at RT
Method: P2Y12 Receptor Binding Assay
Chinese Hamster Ovary (CHO) cells with recombinant expression of the human P2Y12 receptor were cultured in 24 well cell-culture plates. Cells were washed three times with binding buffer (50 mM Tris pH 7.4, 100 mM NaCl, 1 mM EDTA, 0.5% BSA). The cells were then incubated with 0.5 mL per well binding buffer containing tritium-labeled 2-methyl-thio-adenosine 5′-diphosphate (2-methyl-S-ADP) (between 100,000 and 300,000 dpm per well) and various concentrations of test compounds. After incubation at RT for 2 hours, cells were washed three times with binding buffer. Then, cells were solubilized by addition of 0.5 mL solubilization buffer (SDS, NaOH, EDTA). The content of each well was then transferred into beta-counter vials and 2.0 ml of Ultima Gold Scintillation liquid was added.

T1 sequence (Q9H244 whole entry): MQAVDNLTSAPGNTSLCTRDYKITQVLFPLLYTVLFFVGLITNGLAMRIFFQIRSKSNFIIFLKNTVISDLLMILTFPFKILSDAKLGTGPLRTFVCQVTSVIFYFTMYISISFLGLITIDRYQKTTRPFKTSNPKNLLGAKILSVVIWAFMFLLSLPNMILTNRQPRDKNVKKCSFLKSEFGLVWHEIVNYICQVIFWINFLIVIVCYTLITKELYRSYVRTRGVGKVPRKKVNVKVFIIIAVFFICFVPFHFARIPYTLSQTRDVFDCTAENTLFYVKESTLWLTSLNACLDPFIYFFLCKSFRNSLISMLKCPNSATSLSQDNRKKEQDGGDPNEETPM

| Compound | IC50 |
| --- | --- |
| CCCCOC(=O)N1CCN(C(=O)C(NC(=O)c2cc(N3CC[C@H](OC)C3)cc(-c3ccccc3)n2)P(=O)(O)O)CC1 (stereo partly drawn) [Example 12, 4-(-2-{[4-((S)-3-methoxy-pyrrolidin-1-yl)-6-phenyl-pyridine-2-carbonyl]-amino}-2-phosphono-acetyl)-piperazine-1-carboxylic acid butyl ester] | 186 nM |
| CCCCOC(=O)N1CCN(C(=O)[C@@H](CCCP(=O)(O)O)NC(=O)c2cc(N3CC[C@H](OC)C3)cc(-c3ccccc3)n2)CC1 [Example 14, 4-((R)-2-{[4-((S)-3-methoxy-pyrrolidin-1-yl)-6-phenyl-pyridine-2-carbonyl]-amino}-5-phosphono-pentanoyl)-piperazine-1-carboxylic acid butyl ester] | 30 nM |
| CCCCOC(=O)N1CCN(C(=O)[C@H](CP(=O)(O)O)NC(=O)c2cc(-c3ccccc3)cc(-c3ccc(F)cc3)n2)CC1 [Example 17, 4-((R)-2-{[6-(4-fluoro-phenyl)-4-phenyl-pyridine-2-carbonyl]-amino}-3-phosphono-propionyl)-piperazine-1-carboxylic acid butyl ester] | 19 nM |
| CCCCOC(=O)N1CCN(C(=O)[C@H](CP(=O)(O)O)NC(=O)c2cc([C@H]3C[C@@H]3CO)cc(-c3ccccc3)n2)CC1 [Example 20, 4-((R)-2-{[4-((1S,2S)-2-hydroxymethyl-cyclopropyl)-6-phenyl-pyridine-2-carbonyl]-amino}-3-phosphono-propionyl)-piperazine-1-carboxylic acid butyl ester] | 5 nM |
| CCOC(=O)N1CCN(C(=O)[C@H](Cc2ccc(P(=O)(O)O)cc2)NC(=O)c2cc(N3CC[C@H](OC)C3)cc(-c3ccccc3)n2)CC1 [Example 24, 4-[(S)-2-{[4-((S)-3-methoxy-pyrrolidin-1-yl)-6-phenyl-pyridine-2-carbonyl]-amino}-3-(4-phosphono-phenyl)-propionyl]-piperazine-1-carboxylic acid ethyl ester] | 1 nM |
| CCCCOC(=O)N1CCN(C(=O)[C@H](CP(=O)(O)O)NC(=O)c2cc(NC3CC3)cc(-c3ccccc3)n2)CC1 [Example 31, 4-{(R)-2-[(4-cyclopropylamino-6-phenyl-pyridine-2-carbonyl)-amino]-3-phosphono-propionyl}-piperazine-1-carboxylic acid butyl ester] | 4 nM |
| CCCCOC(=O)N1CCN(C(=O)[C@H](CP(=O)(O)O)NC(=O)c2cc(OCCOC)cc(-c3ccccc3)n2)CC1 [Example 36, 4-((R)-2-{[4-(2-methoxy-ethoxy)-6-phenyl-pyridine-2-carbonyl]-amino}-3-phosphono-propionyl)-piperazine-1-carboxylic acid butyl ester] | 2 nM |
| CCCCOC(=O)N1CCN(C(=O)[C@H](CP(=O)(OCOC(C)=O)OCOC(C)=O)NC(=O)c2cc(N3CC[C@H](OC)C3)cc(-c3ccccc3)n2)CC1 [Example 39, 4-((R)-3-(Bis-acetoxymethoxy-phosphoryl)-2-{[4-((S)-3-methoxy-pyrrolidin-1-yl)-6-phenyl-pyridine-2-carbonyl]-amino}-propionyl)-piperazine-1-carboxylic acid butyl ester] | 3 nM |
